Experimental data: patent publication US20250325675A1, “APTAMER, CONJUGATE, COMPOSITION, METHOD FOR PREPARING SAME, AND USE THEREOF” (priority 2022, published 2025)
{Cy5} = cyanine 5 fluorescent dye

Assays:
[1] = test system: A549 human non-small cell lung cancer cells; experiment: High content imaging: entry of conjugates into A549 cells; format: cell-based; conditions: 100 nM, 30 min 37°C
Protocol: (§1) In this experiment, the entry of conjugate AP1 provided by the present disclosure and comparative conjugate comparative AP10 into different cells was observed by a PerkinElmer High Content Imaging system (Operatta).
(§2) U118MG glioma cells, SVGp12 normal astrocytes, T98G human brain glioma cells, U251 human glioma cells, A549 human non-small cell lung cancer cells, MCF-7 human breast cancer cells, and 293T human kidney epithelial cells were all purchased from the Shanghai Cell Bank of Chinese Academy of Sciences. […] The supernatant was aspirated and DPBS buffer (purchased from Thermo Fisher) was added to wash the plate 2 times (100 μL each time).
(§3) Conjugate AP1 prepared above and yeast tRNA were respectively formulated into conjugate solution 2A with DMEM medium, and the conjugate solution 2A comprised yeast tRNA at a final concentration of 100 μg/mL and conjugate AP1 at a final concentration of 100 nM. […]
(§4) Normalization was performed according to the mean fluorescence intensity of control group 2Y, that is, subtracting the mean fluorescence intensity of control group 2Y from the fluorescence intensity of test group 2X before performing imaging.

[2] = test system: MCF-7 human breast cancer cells; experiment: High content imaging: entry of conjugates into MCF-7 cells; format: cell-based; conditions: 100 nM, 30 min 37°C
Protocol: as §1, §2, §3, §4

[3] = test system: A549 human non-small cell lung cancer tumor spheres; experiment: High content imaging: entry into A549 tumor spheres; format: cell-based; conditions: 100 nM, imaging without washing
Protocol: In this experiment, the entry of conjugate AP1 provided by the present disclosure and comparative conjugate comparative AP10 into U118MG glioma tumor spheres and A549 human non-small cell lung cancer tumor spheres was observed by a PerkinElmer High Content Imaging system (Operatta).
80 μL fresh, sterilized and unsolidified 2% agarose was added into the culture wells of a 96-well plate. […] Half of the supernatant was aspirated every 48 h and fresh DMEM medium was added along the wall of the culture wells. After 7 days of culture, the cells were observed under the microscope to confirm that complete cell spheres were obtained, indicating successful tumor sphere cultivation.
Each culture well was added with AP1 or comparative AP10 according to the method of experimental Example 2, and imaged in a high content imaging system, with the only difference of directly performing imaging after culture without washing and performing imaging according to the measured fluorescence intensity of Cy5.

[4] = test system: 293T human renal epithelial cells; experiment: High content imaging: entry of conjugates into 293T cells; format: cell-based; conditions: 100 nM, 30 min 37°C, normal cells
Protocol: as §1, §2, §3, §4

[5] = test system: U118-MG neuroglioma cells; experiment: CCK8 cell viability, U118-MG neuroglioma cells (Experimental Example 12); format: cell-based, human; conditions: 72 h; AP1 50-800 nM, conjugate 19 25-800 nM; CCK8, OD450
Protocol: U118MG neuroglioma cells were purchased from Jennio; SVGp12 human astrocytes were purchased from the Shanghai Cell Bank of Chinese Academy of Sciences; CCK8 kit was purchased from DOJINDO Laboratories.
U118MG cells and SVGp12 cells in the logarithmic growth phase were selected and seeded into a 96-well plate of a CCK8 kit at 5000 cells/well, cultured at 37° C. with 5% CO2 for 24 h. U118-MG cells and SVGp12 cells to be detected were obtained when the cell confluence was observed as 80% under microscope. […]
AP1 solution 1, AP1 solution 2, AP1 solution 3, and AP1 solution 4 were respectively added into U118-MG cells to be detected, and incubated at 37° C. for 72 h in the dark. […]
Conjugate 19 solution 1, Conjugate 19 solution 2, Conjugate 19 solution 3, Conjugate 19 solution 4, Conjugate 19 solution 5, Conjugate 19 solution 6, and Conjugate 19 solution 7 were respectively added into U118-MG cells to be detected, and incubated at 37° C. for 72 h in the dark. […]
CC8 kit was used to detect UV absorbance of test groups and control groups above at the detection wavelength of 450 nm in UV absorption spectrum according to the instructions, and the average value of the repeated experiments was taken for each group. Cell viability was calculated according to the following equation: […]

U118MG glioma cells = experiment: High content imaging: entry of conjugates into U118MG glioma cells; format: cell-based, human; conditions: 100 nM, 30 min 37°C, normalized to control group 2Y
Protocol: as §1, §2, §3, §4

U251 human glioma cells = experiment: High content imaging: entry of conjugates into U251 cells; format: cell-based; conditions: 100 nM, 30 min 37°C
Protocol: as §1, §2, §3, §4

SVGp12 normal astrocytes = experiment: High content imaging: entry of conjugates into SVGp12 normal astrocytes; format: cell-based, human; conditions: 100 nM, 30 min 37°C
Protocol: as §1, §2, §3, §4

“CY5-CfUfGGAGUfUfCfAGACfGUfGUfUfGCfUfCfUfUfCfCfGAUfCfUfCf (CUGGAGUUCAGACGUGUUGCUCUUCCGAUCUC; 2'-fluoro at CU, RNA at AG, 5' {Cy5}, backbone not given here) [AP1]” was tested, and the “Cy5 fluorescence signal in cells” value [1] was “strong Cy5 fluorescence signal”, the “Cy5 fluorescence signal in cells” value [2] was “strong Cy5 fluorescence signal” and the “Cy5 fluorescence signal in tumor spheres” value [3] was “strong Cy5 fluorescence signal”. The “Cy5 fluorescence signal in cells” value [4] was “nor the 293T human renal epithelial cells showed any fluorescence signal”, the “cell viability of tumor cells” value [5] was “no effect on cell viability” and the “Cy5 fluorescence signal in cells” value (U118MG glioma cells) was “strong Cy5 fluorescence signal”. The “Cy5 fluorescence signal in cells” value (U251 human glioma cells) was “strong Cy5 fluorescence signal” and the “Cy5 fluorescence signal in cells” value (SVGp12 normal astrocytes) was “did not show any fluorescence signal”.
